Source: ChEMBL document CHEMBL5608234, “Heat Shock Protein 90 Interactome-Mediated Proteolysis Targeting Chimera (HIM-PROTAC) Degrading Glutathione Peroxidase 4 to Trigger Ferroptosis” (J Med Chem, 2024)
Activity calls are given as the source filed them. No cut-off for these calls is given here.

Tests used:
[1] = Toxicity in BALB/c mouse xenografted with human HT-1080 cells assessed as change in liver morphology at 25 to 50 mg/kg, ip administered once daily by H and E staining based assay; format: organism-based; conditions: in vivo, dose 25-50 mg/kg
4T1 = test: HIM-PROTAC activity at GPX4/HSP90/E3 ligase in […] cells assessed as reduction in GPX4 level at 0.1 to 3 uM incubated for 24 hrs by Western blotting analysis; format: cell-based; conditions: dose 0.1-3 µM
[2] = Toxicity in BALB/c mouse xenografted with human HT-1080 cells assessed as change in lung morphology at 25 to 50 mg/kg, ip administered once daily by H and E staining based assay; format: organism-based; conditions: in vivo, dose 25-50 mg/kg
HT-1080 [3] = test: Upregulation of GPX4 protein level in human HT-1080 cells at 1 uM incubated for 4 hrs by Western blotting analysis; format: functional, cell-based
[4] = AUCinfinity in ICR mouse at 25 mg/kg, ip measured upto 24 hrs by LC-MS/MS analysis; format: ADME, organism-based; conditions: in vivo
HT-1080 [5] = test: Induction of ferroptosis in human HT-1080 cells assessed as appearance of autophagosome-like structures at 1 uM incubated for 24 hrs by TEM analysis; format: functional, cell-based
[6] = target: T1, Phospholipid hydroperoxide glutathione peroxidase GPX4 (Homo sapiens) (UniProt P36969); test: Induction of GPX4 ubiquitination in human HT-1080 cells at 1 uM incubated for 12 hrs by SDS-PAGE assay; format: cell-based; conditions: filed as activator
T1 sequence (whole entry): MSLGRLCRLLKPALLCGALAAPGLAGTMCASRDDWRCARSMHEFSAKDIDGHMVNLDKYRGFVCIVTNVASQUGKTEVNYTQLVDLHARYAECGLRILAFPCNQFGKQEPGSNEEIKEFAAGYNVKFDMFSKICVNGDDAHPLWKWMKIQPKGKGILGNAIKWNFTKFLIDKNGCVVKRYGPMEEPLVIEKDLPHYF

HT-1080 [7] = test: Induction of ferroptosis in human HT-1080 cells assessed as increase in lipid peroxidation by measuring fluorescence intensity at 1 uM incubated for 12 hrs in presence of Fer-1 by C11-BODIPSY 581/591 staining based flow cytometry analysis; format: functional, cell-based
HT-1080 [8] = test: Induction of ferroptosis in human HT-1080 cells assessed as mitochondrial swelling at 1 uM incubated for 24 hrs by TEM analysis; format: functional, cell-based
HT-1080 [9] = test: Downregulation of GPX4 protein level in human HT-1080 cells at 1 uM incubated for 24 hrs by proteomics analysis; format: functional, cell-based
[10] = Toxicity in BALB/c mouse xenografted with human HT-1080 cells assessed as change in kidney morphology at 25 to 50 mg/kg, ip administered once daily by H and E staining based assay; format: organism-based; conditions: in vivo, dose 25-50 mg/kg
HT-1080 [11] = test: Induction of HSP90/GPX4 protein protein interaction in human HT-1080 cells assessed as ternary complex formation at 5 uM incubated for 12 hrs by co-immunoprecipitation method; format: cell-based; conditions: filed as activator
HT-1080 [12] = test: Upregulation of HMOX1 protein level in human HT-1080 cells at 1 uM incubated for 24 hrs by proteomics analysis; format: functional, cell-based
HT-1080 [13] = test: HIM-PROTAC activity at GPX4/HSP90/E3 ligase in human HT-1080 cells assessed as reduction in GPX4 level at 1 uM incubated for 24 hrs by Western blotting analysis; format: cell-based; set-up: scale not given: the % may be the effect or the level left
HT-1080 [14] = test: HIM-PROTAC activity at GPX4/HSP90/E3 ligase in HSP90-knockdown human HT-1080 cells assessed as GPX4 degradation at 0.3 to 1 uM incubated for 24 hrs by Western blotting analysis; format: cell-based; conditions: dose 0.3-1 µM
[15] = Half-life in ICR mouse at 25 mg/kg, ip measured upto 24 hrs by LC-MS/MS analysis; format: ADME, organism-based; conditions: in vivo
HT-1080 [16] = test: HIM-PROTAC activity at GPX4/HSP90/E3 ligase in human HT-1080 cells assessed as reduction in GPX4 level at 1 uM preincubated with MG132 for 2 hrs followed by compound addition and measured after 24 hrs by Western blotting analysis; format: cell-based
[17] = MRT(infinity) in ICR mouse at 25 mg/kg, ip measured upto 24 hrs by LC-MS/MS analysis; format: ADME, organism-based; conditions: in vivo
[18] = Toxicity in BALB/c mouse xenografted with human HT-1080 cells assessed as reduction in body weight at 25 to 50 mg/kg, ip administered once daily; format: organism-based; conditions: in vivo, dose 25-50 mg/kg
HT-1080 [19] = test: HIM-PROTAC activity at GPX4/HSP90/E3 ligase in human HT-1080 cells assessed as reduction in GPX4 level at 1 uM preincubated with 6-chloro-9-((4-methoxy-3,5-dimethylpyridin-2-yl)methyl)-9H-purin-2-amine for 2 hrs followed by compound addition and measured after 24 hrs by Western blotting analysis; format: cell-based
[20] = AUC(0 to t) in ICR mouse at 25 mg/kg, ip measured upto 24 hrs by LC-MS/MS analysis; format: ADME, organism-based; conditions: in vivo
Mus musculus [21] = test: Effect on HSP90 level in BALB/c mouse xenografted with human HT-1080 cells at 25 to 50 mg/kg, ip administered once daily by immunohistochemistry analysis; format: functional, organism-based; conditions: dose 25-50 mg/kg
[22] = Toxicity in BALB/c mouse xenografted with human HT-1080 cells assessed as change in heart morphology at 25 to 50 mg/kg, ip administered once daily by H and E staining based assay; format: organism-based; conditions: in vivo, dose 25-50 mg/kg
HT-1080 [23] = test: Induction of ferroptosis in human HT-1080 cells assessed as broken mitochondrial outer membrane at 1 uM incubated for 24 hrs by TEM analysis; format: functional, cell-based
HT-1080 [24] = test: Induction of ferroptosis in human HT-1080 cells assessed as increase in ROS level at 1 uM incubated for 24 hrs by DCFH-DA staining based confocal laser scanning microscopic analysis; format: functional, cell-based
MDA-MB-231 = test: HIM-PROTAC activity at GPX4/HSP90/E3 ligase in human MDA-MB-231 cells assessed as reduction in GPX4 level at 0.1 to 3 uM incubated for 24 hrs by Western blotting analysis; format: cell-based; conditions: dose 0.1-3 µM
[25] = Toxicity in BALB/c mouse xenografted with human HT-1080 cells assessed as change in spleen morphology at 25 to 50 mg/kg, ip administered once daily by H and E staining based assay; format: organism-based; conditions: in vivo, dose 25-50 mg/kg
HT-1080 [26] = test: Induction of ferroptosis in human HT-1080 cells assessed as fold increase in cytotoxic IC50 incubated for 48 hrs in presence of Fer-1 by CCK-8 assay; format: functional
Mus musculus [27] = test: Downregulation of GPX4 level in ip dosed BALB/c mouse xenografted with human HT-1080 cells administered once daily by immunohistochemistry analysis; format: functional, organism-based; conditions: dose 25-50 mg/kg
HT-1080 [28] = test: HIM-PROTAC activity at GPX4/HSP90/E3 ligase in human HT-1080 cells assessed as reduction in GPX4 level at 1 uM incubated for 12 hrs by Western blotting analysis; format: cell-based
HT-1080 [29] = test: Induction of ferroptosis in human HT-1080 cells assessed as reduction in mitochondrial crests at 1 uM incubated for 24 hrs by TEM analysis; format: functional, cell-based
[30] = target: Heat shock protein HSP 90-alpha (Homo sapiens, UniProt P07900); test: Binding affinity to recombinant human HSP90alpha by SPR assay
HT-1080 [31] = test: Induction of ferroptosis in human HT-1080 cells assessed as increase in HMOX1 protein level after 24 hrs by Western blotting analysis; format: functional, cell-based; conditions: dose 0.1-3 µM

Row | Structure (SMILES) | Activity [1] | Activity (4T1) | Activity [2] | Activity (HT-1080 [3]) | AUC(0-inf) [4] [ng·h/mL] | Activity (HT-1080 [5]) | Activity [6] | Activity (HT-1080 [7]) | Activity (HT-1080 [8]) | Activity (HT-1080 [9]) | Activity [10] | Activity (HT-1080 [11]) | Activity (HT-1080 [12]) | Activity (HT-1080 [13]) [%] | Activity (HT-1080 [14]) | half-life [15] [h] | Activity (HT-1080 [16]) | MRT inf [17] [h] | Activity [18] | Activity (HT-1080 [19]) | further results
1 | COc1c(C)cnc(Cn2cnc3c(NCCC4CCN(C(=O)Cn5cc(COc6ccc(N(C(=O)CCl)C(C(=O)NCCc7ccccc7)c7cccs7)cc6Cl)nn5)CC4)nc(N)nc32)c1C (stereo unspecified) | Non-Toxic | Active | Non-Toxic | Active | 346 | Active | Active | inactive | Active | Active | Non-Toxic | Active | Active | 100 | inactive | 5 | inactive | 6.2 | Toxic | inactive | AUC(0-t) at 24 h [20]: 334 ng·h/mL; Activity (Mus musculus [21]): inactive; Activity [22]: Non-Toxic; Activity (HT-1080 [23]): Active; Activity (HT-1080 [24]): Active; Activity (MDA-MB-231): inactive; Activity [25]: Non-Toxic; fold change (FC) (HT-1080 [26]): 45; Activity (Mus musculus [27]): Dose-Dependent Effect; Activity (HT-1080 [28]): Active; Activity (HT-1080 [29]): Active; Kd [30]: 190 nM; Activity (HT-1080 [31]): Dose-Dependent Effect
2 | COc1c(C)cnc(Cn2cnc3c(NCCOCCOCCOCCn4cc(COc5ccc(N(C(=O)CCl)C(C(=O)NCCc6ccccc6)c6cccs6)cc5Cl)nn4)nc(N)nc32)c1C (stereo unspecified) | Non-Toxic | Active | Non-Toxic | Active | 1030 | Active | Active | inactive | Active | Active | Non-Toxic | Active | Active | 100 | inactive | 5.5 | inactive | 8.2 | Toxic | inactive | AUC(0-t) at 24 h [20]: 726 ng·h/mL; Activity (Mus musculus [21]): inactive; Activity [22]: Non-Toxic; Activity (HT-1080 [23]): Active; Activity (HT-1080 [24]): Active; Activity (MDA-MB-231): inactive; Activity [25]: Non-Toxic; fold change (FC) (HT-1080 [26]): 2; Activity (Mus musculus [27]): Dose-Dependent Effect; Activity (HT-1080 [28]): Active; Activity (HT-1080 [29]): Active; Kd [30]: 2770 nM; Activity (HT-1080 [31]): Dose-Dependent Effect
